# ChEMBL document CHEMBL1201862, “PubChem BioAssay data set” (2004)
#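 Test compounds were applied to cells in 96-well plates for 48 hours at 5 doses. GI50 = concentration required for 50% inhibition of growth.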 Calls of active or inactive are those of the source. No stated cut-off is given here; in the data, active = GI50 up to about 1.1 µM and inactive = higher.
# Legend:
# Experiment in all cases: NCI-60 cell line screen, 48 h
# HOP-62 = test system: HOP-62
# UACC-62 = test system: UACC-62
# A498 = test system: A498
# Hs-578T = test system: Hs-578T
# SF-268 = test system: SF-268
# U-251 = test system: U-251
# SF-539 = test system: SF-539
# MOLT-4 = test system: MOLT-4
# MDA-MB-231 = test system: MDA-MB-231
# SF-295 = test system: SF-295
# ACHN = test system: ACHN
# RXF 393 = test system: RXF 393
# PC-3 = test system: PC-3
# UO-31 = test system: UO-31
# MDA-MB-435 = test system: MDA-MB-435
# SR = test system: SR
# SNB-75 = test system: SNB-75
# NCI-H23 = test system: NCI-H23
# NCI/ADR-RES = test system: NCI/ADR-RES
# Malme-3M = test system: Malme-3M
SMILES,GI50 (HOP-62),GI50 (UACC-62),GI50 (A498),GI50 (Hs-578T),GI50 (SF-268),GI50 (U-251),GI50 (SF-539),GI50 (MOLT-4),GI50 (MDA-MB-231),GI50 (SF-295),GI50 (ACHN),GI50 (RXF 393),GI50 (PC-3),GI50 (UO-31),GI50 (MDA-MB-435),GI50 (SR),GI50 (SNB-75),GI50 (NCI-H23),GI50 (NCI/ADR-RES),GI50 (Malme-3M)
COC1/C=C/C(C)C(OC)CC(O)/C=C/C(C)C(C(C)C(OC)C(C)CCC(=O)C(C)C(C/C=C/N(C)C=O)OC)OC(=O)/C=C/C=C(\C)CC(OC)C(OC)C2=CC(=O)O[C@@H](C(C)C(OC)C1)[C@H]2O (stereo not given in full),32.4 nM (active),57.1 nM (active),28.9 nM (active),30.7 nM (active),44.2 nM (active),30.3 nM (active),31.3 nM (active),68.1 nM (active),36.6 nM (active),34.5 nM (active),36.7 nM (active),39 nM (active),33.7 nM (active),41.9 nM (active),53.2 nM (active),61.7 nM (active),34 nM (active),51.2 nM (active),52.2 nM (active),40 nM (active)
CSc1nc(C)c2c(n1)SCC2,> 10000 nM (inactive),> 10000 nM (inactive),> 10000 nM (inactive),2520 nM (inactive),> 10000 nM (inactive),> 10000 nM (inactive),> 10000 nM (inactive),> 10000 nM (inactive),> 10000 nM (inactive),> 10000 nM (inactive),> 10000 nM (inactive),> 10000 nM (inactive),> 10000 nM (inactive),> 10000 nM (inactive),> 10000 nM (inactive),> 10000 nM (inactive),> 10000 nM (inactive),> 10000 nM (inactive),> 10000 nM (inactive),> 10000 nM (inactive)
CN(C)CCCNc1ccc2ncn3c4ccc(O)cc4c(=O)c1c23,538 nM (active),1200 nM (inactive),697 nM (active),541 nM (active),957 nM (active),203 nM (active),506 nM (active),40.6 nM (active),7460 nM (inactive),708 nM (active),158 nM (active),439 nM (active),1830 nM (inactive),1350 nM (inactive),4880 nM (inactive),< 18.9 nM (active),601 nM (active),716 nM (active),12400 nM (inactive),2830 nM (inactive)
